Patent US10696693B2, “Fused imidazole derivatives as TGF-beta inhibitors” (Rigel Pharmaceuticals, Inc., priority 2014, dated 2020)
Where two headings read alike, the source gives them in different places.

How the values were obtained:
GDF8 = assay: AlphaScreen SureFire p-SMAD3 (Ser423/425) assay, GDF8-stimulated cells; type: cell-based
Summary of the method: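 Lysate (5 μL) went into 384-well shallow plates with 5 μL of Reaction Buffer, Activation Buffer and AlphaScreen Acceptor bead mix. Plates were sealed, kept dark and shaken for 2 hours at room temperature. Donor beads in dilution buffer (2 μL) were added for another 1½ hours, and p-SMAD3 signal was read on a Synergy-4 or Enspire reader.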

TGF-β = assay: AlphaScreen SureFire p-SMAD3 (Ser423/425) assay, TGF-β-stimulated cells; type: cell-based; conditions: Mus musculus
Summary of the method: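 The p-SMAD-3 (Ser423/425) SureFire assay measured phosphorylation of endogenous SMAD-3 in cell lysates. Cells were plated overnight in collagen-coated plates, exposed to three-fold serially diluted compounds for about 10 minutes, then stimulated with TGFβ. Lysates (5 μL) received acceptor bead mix for 2 hours, then donor beads for 1½ hours before AlphaScreen reading.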

[1] = Mus musculus, MPC-11, p-SMAD3 (Ser423/425) AlphaScreen in cell lysate, MPC11, GDF8 stimulation, read-out: GDF8: inhibition of GDF8 signaling, GDF pSMAD (MPC11)
[2] = p-SMAD3 (Ser423/425) AlphaScreen in cell lysate, MPC-11, TGF-β stimulation, read-out: TGF-β: inhibition of TGF-β signaling, TGF-β pSMAD (MPC-11)
[3] = Mus musculus, MPC-11, read-out: GDF8: inhibition of GDF8 signaling, GDF pSMAD (MPC11), p-SMAD3 (Ser423/425) AlphaScreen in cell lysate, GDF8 stimulation
[4] = MPC-11, read-out: TGF-β: inhibition of TGF-β signaling, TGF-β pSMAD (MPC-11), p-SMAD3 (Ser423/425) AlphaScreen in cell lysate, TGF-β stimulation

Row | IC50 (GDF8; [1]) [nM] | IC50 (TGF-β; [2]) [nM] | Compound | IC50 (GDF8; [3]) [nM] | IC50 (TGF-β; [4]) [nM] | IC50 (GDF8; read-out: GDF8: inhibition of GDF8 signaling, GDF pSMAD (MPC11), p-SMAD3 (Ser423/425) AlphaScreen in cell lysate, GDF8 stimulation) [nM]
1 | > 1000 | > 1000 | Cc1cc(-c2nc3n(c2-c2ccc4ncccc4c2)CCC3)c(F)cc1Cl [Compound 255] |  |  | 
2 | 100 to 1000 | > 1000 | Cc1c(-c2nc3n(c2-c2ccc4ncccc4c2)CCC3)ccc(F)c1F [Compound 263, 6-(2-(3,4-difluoro-2-methylphenyl)-6,7-dihydro-5H-pyrrolo[1,2-a]imidzaol-3-yl)quinoline] |  |  | 
3 | < 50 | 50 to 100 | Fc1cc(F)c(-c2nc3occn3c2-c2ccc3nccnc3c2)cc1F [Compound 149, 5-(quinoxalin-6-yl)-6-(2,4,5-trifluorophenyl)imidazo[2,1-b]oxazole] |  |  | 
4 | 100 to 1000 | 100 to 1000 | Fc1ccccc1-c1nc2n(c1-c1ccc3nccn3c1)CCC2 [Compound 8] |  |  | 
5 | < 50 | 100 to 1000 | Fc1cc(F)c(-c2nc3n(c2-c2ccc4nccn4c2)CCC3)cc1F [Compound 12] |  |  | 
6 | > 1000 | > 1000 | COc1c(C)cc(-c2nc3n(c2-c2ccc4nccnc4c2)CCC3)cc1C [Compound 258, 6-(2-(4-methoxy-3,5-dimethylphenyl)-6,7-dihydro-5H-pyrrolo[1,2-a]imidaol-3-yl)quinoxaline] |  |  | 
7 | > 1000 | > 1000 | Cc1ccc(F)cc1-c1nc2n(c1-c1ccc3ncnn3c1)CCC2 [Compound 58, 6-(2-(5-fluoro-2-methylphenyl)-6,7-dihydro-5H-pyrrolo[1,2-a]imidazol-3-yl)-[1,2,4]triazolo[1,5-a]pyridine] |  |  | 
8 |  |  | Cc1c(F)ccc(-c2nc3n(c2-c2ccc4[nH]ncc4c2)CCC3)c1Cl [Compound 312, 5-(2-(2-chloro-4-fluoro-3-methylphenyl)-6,7-dihydro-5H-pyrrolo[1,2-a]imidazol-3-yl)-1H-indazole] | > 1000 | > 1000 | 
9 | > 1000 | > 1000 | Cc1ccc(-c2nc3n(c2-c2ccc4ncccc4c2)CCC3)c(F)c1F [Compound 251, 6-(2-(2,3-difluoro-4-methylphenyl)-6,7-dihydro-5H-pyrrolo[1,2-a]imidazol-3-yl)quinoline] |  |  | 
10 | < 50 | 100 to 1000 | Fc1cc(F)c(-c2nc3n(c2-c2ccc4nccnc4c2)CCC3)cc1F [Compound 219, 6-(2-(2,4,5-trifluorophenyl)-6,7-dihydro-5H-pyrrolo[1,2-a]imidazol-3-yl)quinoxaline] |  |  | 
11 | 50 to 100 | 100 to 1000 | Cc1cc(-c2nc3n(c2-c2ccc4nccn4c2)CCC3)ccc1F [Compound 3, 6-(2-(4-fluoro-3-methylphenyl)-6,7-dihydro-5H-pyrrolo[1,2-a]imidazol-3-yl)imidazo[1,2-a]pyridine] |  |  | 
12 | 50 to 100 | 50 to 100 | Fc1ccc(-c2nc3occn3c2-c2ccc3[nH]ncc3c2)cc1F [Compound 133, 6-(3,4-difluorophenyl)-5-(1H-indazol-5-yl)imidazo[2,1-b]oxazole] |  |  | 
13 | < 50 | 50 to 100 | Fc1cc(F)c(-c2nc3occn3c2-c2ccc3[nH]ncc3c2)cc1F [Compound 152, 6-(2,4,5-trifluorophenyl)-5-(1H-indazol-5-yl)imidazo[2,1-b]oxazole] |  |  | 
14 | 100 to 1000 | > 1000 | Fc1cc(-c2nc3n(c2-c2ccc4ncnn4c2)CCC3)c(F)cc1Cl [Compound 18, 6-(2-(4-chloro-2,5-difluorophenyl)-6,7-dihydro-5H-pyrrolo[1,2-a]imidazol-3-yl)-[1,2,4]triazolo[1,5-a]pyridine] |  |  | 
15 |  |  | Cc1cc(F)c(-c2nc3n(c2-c2ccc4[nH]ncc4c2)CCC3)cc1F [Compound 284, 5-(2-(2,5-difluoro-4-methylphenyl)-6,7-dihydro-5H-pyrrolo[1,2-a]imidazol-3-yl)-1H-indazole] | > 1000 | > 1000 | 
16 |  |  | Cc1ccccc1-c1nc2n(c1-c1ccc3ncnn3c1)CCC2 [Compound 62, 6-(2-(2-methylphenyl)-6,7-dihydro-5H-pyrrolo[1,2-a]imidazol-3-yl)-[1,2,4]triazolo[1,5-a]pyridine] | > 1000 | > 1000 | 
17 | < 50 | 50 to 100 | Fc1ccc(-c2nc3occn3c2-c2ccc3nccn3c2)cc1 [Compound 129, 6-(4-fluorophenyl)-5-(imidazo[1,2-a]pyridin-6-yl)imidazo[2,1-b]oxazole] |  |  | 

Row | IC50 (GDF8; [1]) [nM] | IC50 (TGF-β; [2]) [nM] | Compound | IC50 (GDF8; [3]) [nM] | IC50 (TGF-β; [4]) [nM] | IC50 (GDF8; read-out: GDF8: inhibition of GDF8 signaling, GDF pSMAD (MPC11), p-SMAD3 (Ser423/425) AlphaScreen in cell lysate, GDF8 stimulation) [nM]
18 | 100 to 1000 | > 1000 | Cc1cc(-c2nc3n(c2-c2ccc4nccn4c2)CCC3)c(C)cc1F [Compound 65, 6-(2-(4-fluoro-2,5-dimethylphenyl)-6,7-dihydro-5H-pyrrolo[1,2-a]imidazol-3-yl)imidazo[1,2-a]pyridine] |  |  | 
19 | 100 to 1000 | > 1000 | Cc1c(-c2nc3n(c2-c2ccc4ncsc4c2)CCC3)ccc(F)c1F [Compound 261, 6-(2-(3,4-difluoro-2-methylphenyl)-6,7-dihydro-5H-pyrrolo[1,2-a]imidazol-3-yl)benzo[d]thiazole] |  |  | 
20 | < 50 | < 50 | c1ccc(C2=C(c3ccc4[nH]ncc4c3)C3CCCC3=N2)nc1 (centres unmarked) [Compound 365, 5-(2-(pyridin-2-yl)-3a,4,5,6-tetrahydrocyclopenta[b]pyrrol-3-yl)-1H-indazole] |  |  | 
21 |  |  | Cc1cc(F)ccc1-c1nc2n(c1-c1ccc3[nH]ncc3c1)CCC2 [Compound 292, 5-(2-(4-fluoro-2-methylphenyl)-6,7-dihydro-5H-pyrrolo[1,2-a]imidazol-3-yl)-1H-indazole] | > 1000 | > 1000 | 
22 | 50 to 100 | 50 to 100 | Nc1ncnc2ccc(-c3c(-c4cc(F)cc(F)c4F)nc4n3CCN4)cc12 [Compound 113, 6-(6-(2,3,5-trifluorophenyl)-2,3-dihydro-1H-imidazo[1,2-a]imidazol-5-yl)quinazolin-4-amine] |  |  | 
23 |  |  | CN(C)CCOc1cnc2ccc(-c3c(-c4cc(F)cc(F)c4F)nc4n3CCC4)cc2n1 [Compound 361, N,N-dimethyl-2-((7-(2-(2,3,5-trifluorophenyl)-6,7-dihydro-5H-pyrrolo[1,2-a]imidazol-3-yl)quinoxalin-2-yl)oxy)ethan-1-amine] | > 1000 | > 1000 | 
24 | > 1000 | > 1000 | Cc1cc(-c2nc3n(c2-c2ccc4ncnn4c2)CCC3)cc(Cl)c1F [Compound 40, 6-(2-(3-chloro-4-fluoro-5-methylphenyl)-6,7-dihydro-5H-pyrrolo[1,2-c]imidazol-3-yl)-[1,2,4]triazolo[1,5-c]pyridine] |  |  | 
25 | 100 to 1000 | 100 to 1000 | Cc1c(F)ccc(-c2nc3n(c2-c2ccc4nccnc4c2)CCC3)c1F [Compound 282, 6-(2-(2,4-difluoro-3-methylphenyl)-6,7-dihydro-5H-pyrrolo[1,2-a]imidazol-3-yl)quinoxaline] |  |  | 
26 | > 1000 | > 1000 | Fc1ccc(-c2nc3n(c2-c2ccc4nnc(C(F)(F)F)n4c2)CCC3)c(F)c1F [Compound 35] |  |  | 
27 |  |  | OCC1CCC2(CC1)Cc1nc(-c3ccc(F)cc3)c(-c3ccc4ncsc4c3)n1C2 (centres unmarked) [Compound 335, (3′-(benzo[d]thiazol-6-yl)-2′-(4-fluorophenyl)-5′H,7′H-spiro[cyclohexane-1,6′-pyrrolo[1,2-a]imidazol]-4-yl)methanol] | > 1000 | > 1000 | 
28 | 50 to 100 | 100 to 1000 | Cc1c(F)ccc(-c2nc3n(c2-c2ccc4ncsc4c2)CCC3)c1F [Compound 281, 6-(2-(2,4-difluoro-3-methylphenyl)-6,7-dihydro-5H-pyrrolo[1,2-a]imidazol-3-yl)benzo[d]thiazol] |  |  | 
29 | 100 to 1000 | > 1000 | Fc1cc(-c2nc3n(c2-c2ccc4ncsc4c2)CCC3)c(F)cc1Cl [Compound 240, 6-(2-(4-chloro-2,5-difluorophenyl)-6,7-dihydro-5H-pyrrolo[1,2-a]imidazol-3-yl)benzo[d]thiazole] |  |  | 
30 | > 1000 | > 1000 | CC(C)c1nnc2ccc(-c3c(-c4cc(F)c(F)cc4F)nc4n3CCC4)cn12 [Compound 21, 3-isopropyl-6-(2-(2,4,5-trifluorophenyl)-6,7-dihydro-5H-pyrrolo[1,2-a]imidazol-3-yl)-[1,2,4]triazolo[4,3-a]pyridine] |  |  | 
31 |  |  | Cc1cc(-c2nc3n(c2-c2ccc4ncccc4c2)CCC3)c(Cl)cc1F [Compound 319, 6-(2-(2-chloro-4-fluoro-5-methylphenyl)-6,7-dihydro-5H-pyrrolo[1,2-a]imidazol-3-yl)quinoline] |  | > 1000 | 100 to 1000
32 | > 1000 | > 1000 | CN1CCC2Cn3c(nc(-c4ccc(F)cc4)c3-c3ccc4ncnn4c3)C2C1 (centres unmarked) [Compound 89, 3-([1,2,4]triazolo[1,5-a]pyridin-6-yl)-2-(4-fluorophenyl)-8-methyl-5a,6,7,8,9,9a-hexahydro-5H-imidazo[1′,2′:1,2]pyrrolo[3,4-c]pyridine] |  |  | 
33 | 100 to 1000 | 100 to 1000 | COc1cccc(-c2nc3n(c2-c2ccc4nccn4c2)CCC3)c1 [Compound 5] |  |  | 
34 |  |  | Fc1ccc(-c2nc3n(c2-c2ccc4[nH]ncc4c2)CCC3)cc1 [Compound 175, 5-(2-(4-fluorophenyl)-6,7-dihydro-5H-pyrrolo[1,2-a]imidazol-3-yl)-1H-indazole] | 100 to 1000 | 100 to 1000 | 
